Measured values reported in the supplement of paper PMC11061612.

What was measured:
Experiment in all cases: combination Emax (second highest fraction inhibited in the dose matrix, 72 h); higher = more inhibition; extreme values may be limits of the assay
[1] = test system: Becker (Low Grade Glioma)
In short: (§1)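 Cell lines grown in DMEM/F12 or RPMI with 10% FBS were plated in 1536-well plates and held 24 hours at 37°C, 5% CO2 before 72 hours of exposure to two-drug dose matrices, with DMSO typically at 0.2%. CellTiter-Glo 2.0 luminescence gave viability, which was converted to inhibition. Vehicle wells were set to 0 and blank wells to 1. Combination Emax is the second-highest inhibition in the matrix, and Bliss excess is the observed combination effect minus the expected EA + EB − EA·EB, where EA and EB are the single-agent effects.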

[2] = test system: SJRH30 (Rhabdomyosarcoma)
In short: as §1

[3] = test system: LAMA-84 (Chronic Myelogenous Leukemia)
In short: as §1

[4] = test system: BALL-1 (B-Lymphoblastic Leukemia)
In short: as §1

[5] = test system: PANC-02-03 (Pancreatic Carcinoma)
In short: as §1

[6] = test system: Calu-6 (Non-Small Cell Lung Carcinoma)
In short: as §1

[7] = test system: KYSE-70 (Esophageal Squamous Cell Carcinoma)
In short: as §1

[8] = test system: EB-3 (Burkitt's Lymphoma)
In short: as §1

[9] = test system: NCI-H810 (Non-Small Cell Lung Carcinoma)
In short: as §1

[10] = test system: LOUCY (T-Lymphoblastic Leukemia)
In short: as §1

[11] = test system: NCI-H1563 (Lung Adenocarcinoma)
In short: as §1

[12] = test system: RMG-I (Ovarian Carcinoma)
In short: as §1

[13] = test system: RPMI-8866 (Chronic Myelogenous Leukemia)
In short: as §1

[14] = test system: AN3-CA (Endometrial Carcinoma)
In short: as §1

[15] = test system: HTC-C3 (Thyroid Gland Carcinoma)
In short: as §1

[16] = test system: SNU-175 (Colorectal Carcinoma)
In short: as §1

[17] = test system: JHH-1 (Hepatocellular Carcinoma)
In short: as §1

[18] = test system: RERF-LC-KJ (Lung Adenocarcinoma)
In short: as §1

786-0 (Kidney Carcinoma) = test system: 786-0 (Kidney Carcinoma)
In short: as §1

| SMILES | combination Emax [1] | combination Emax [2] | combination Emax [3] | combination Emax [4] | combination Emax [5] | combination Emax [6] | combination Emax [7] | combination Emax [8] | combination Emax [9] | combination Emax [10] | combination Emax [11] | combination Emax [12] | combination Emax [13] | combination Emax [14] | combination Emax [15] | combination Emax [16] | combination Emax [17] | combination Emax [18] | combination Emax (786-0 (Kidney Carcinoma)) |
| --- | --- | --- | --- | --- | --- | --- | --- | --- | --- | --- | --- | --- | --- | --- | --- | --- | --- | --- | --- |
| NC1(C(=O)N[C@@H](CCO)c2ccc(Cl)cc2)CCN(c2ncnc3[nH]ccc23)CC1 [Capivasertib] + Cn1cnc2c(F)c(Nc3ccc(Br)cc3Cl)c(C(=O)NOCCO)cc21 [Selumetinib] (first compound max 10 µM, 7x7, partner max 10 µM) | 0.65 | 0.769 | 0.977 | 0.478 | 0.572 | 0.707 | 0.374 | 0.325 | 0.139 | 0.66 | 0.4 | 0.392 | 0.432 | 0.815 | 0.772 | 0.534 | 0.295 | 0.436 | 0.696 |
| CC(=O)c1c(C)c2cnc(Nc3ccc(N4CCNCC4)cn3)nc2n(C2CCCC2)c1=O [Palbociclib] + CC1(C)CCC(CN2CCN(c3ccc(C(=O)NS(=O)(=O)c4ccc(NCC5CCOCC5)c([N+](=O)[O-])c4)c(Oc4cnc5[nH]ccc5c4)c3)CC2)=C(c2ccc(Cl)cc2)C1 [Venetoclax] (first compound max 10 µM, 7x7, partner max 1 µM) | 0.249 | 0.0832 | 0.496 | 1 | 0.148 | 0.353 | 0.11 | 0.329 | 0.0599 | 1 | 0.313 | 0.277 | 0.754 | 0.255 | 0.189 | 0.562 | 0.138 | 0.117 | 0.411 |
| NC1(C(=O)N[C@@H](CCO)c2ccc(Cl)cc2)CCN(c2ncnc3[nH]ccc23)CC1 [Capivasertib] + C[C@@H]1COCCN1C2=NC(=NC(=C2)C3(CC3)[S@](=N)(=O)C)C4=C5C=CNC5=NC=C4 [AZD6738] (first compound max 10 µM, 7x7, partner max 10 µM) | 0.747 | 0.89 | 0.941 | 1 | 0.474 | 0.792 | 0.377 | 0.651 | 0.648 | 0.979 | 0.501 | 0.385 | 0.911 | 0.849 | 0.823 | 0.709 | 0.409 | 0.478 | 0.809 |
| COc1nnc2ccc(N3CCC(c4ccc(OCCN5CCN(C)C(=O)[C@H]5C)cc4)CC3)nn12 [AZD5153] + C[C@@H]1COCCN1C2=NC(=NC(=C2)C3(CC3)[S@](=N)(=O)C)C4=C5C=CNC5=NC=C4 [AZD6738] (first compound max 1 µM, 7x7, partner max 10 µM) | 0.536 | 0.945 | 0.97 | 1 | 0.727 | 0.87 | 0.424 | 0.833 | 0.795 | 0.997 | 0.664 | 0.561 | 0.958 | 0.55 | 0.845 | 0.883 | 0.663 | 0.968 | 0.754 |
| COc1cc2ncnc(Nc3ccc(F)c(Cl)c3)c2cc1OCCCN1CCOCC1 [Gefitinib] + CC(C)n1c(=O)n(C)c2cnc3cc(F)c(-c4ccc(OCCCN5CCCCC5)nc4)cc3c21 [AZD1390] (first compound max 10 µM, 7x7, partner max 0.3 µM) | 0.126 | 0 | 0.315 | 0.279 | 0.266 | 0.128 | 0.098 | 0.456 | 0.158 | 0.296 | 0.228 | 0.413 | 0.119 | 0.01 | 0.0317 | 0.456 | 0.247 | 0.351 | 0.247 |
| COc1nnc2ccc(N3CCC(c4ccc(OCCN5CCN(C)C(=O)[C@H]5C)cc4)CC3)nn12 [AZD5153] + Cc1c2c(nn1C)CSCc1cc(n(C)n1)CSc1cc(c3ccccc3c1)OCCCc1c(C(=O)O)n(C)c3c-2c(Cl)ccc13 [AZD5991] (first compound max 1 µM, 7x7, partner max 1 µM) | 0.484 | 0.97 | 0.928 | 0.98 | 0.595 | 0.24 | 0.355 | 0.822 | 0.995 | 0.997 | 0.835 | 0.58 | 0.857 | 0.544 | 0.745 | 0.931 | 0.906 | 0.979 | 0.557 |
| COc1nnc2ccc(N3CCC(c4ccc(OCCN5CCN(C)C(=O)[C@H]5C)cc4)CC3)nn12 [AZD5153] + C=CCn1c(=O)c2cnc(Nc3ccc(N4CCN(C)CC4)cc3)nc2n1-c1cccc(C(C)(C)O)n1 [AZD1775] (first compound max 1 µM, partner max 1 µM) | 0.384 | 0.942 | 0.978 | 1 | 0.645 | 0.854 | 0.47 | 0.814 | 0.8 | 1 | 0.564 | 0.592 | 0.952 | 0.435 | 0.772 | 0.813 | 0.584 | 0.957 | 0.641 |
| NC1(C(=O)N[C@@H](CCO)c2ccc(Cl)cc2)CCN(c2ncnc3[nH]ccc23)CC1 [Capivasertib] + CCN(CCO)CCCOc1ccc2c(Nc3cc(CC(=O)Nc4cccc(F)c4)[nH]n3)ncnc2c1 [AZD2811] (first compound max 10 µM, 7x7, partner max 1 µM) | 0.535 | 0.734 | 0.612 | 0.74 | 0.24 | 0.413 | 0.272 | 0.458 | 0.534 | 0.918 | 0.441 | 0.315 | 0.562 | 0.786 | 0.405 | 0.846 | 0.232 | 0.503 | 0.553 |
| Cc1nc(Nc2ncc(C(=O)Nc3c(C)cccc3Cl)s2)cc(N2CCN(CCO)CC2)n1 [Dasatinib] + CC(=O)Nc1cccc(-n2c(=O)n(C3CC3)c(=O)c3c(Nc4ccc(I)cc4F)n(C)c(=O)c(C)c32)c1 [Trametinib] (first compound max 2 µM, 7x7, partner max 1 µM) | 0.5 | 0.157 | 1 | 0.257 | 0.836 | 0.969 | 0.278 | 0.362 | 0.103 | 0.344 | 0.447 | 0.505 | 0.556 | 0.491 | 0.906 | 0.425 | 0.806 | 0.436 | 0.642 |
| Cn1cnc2c(F)c(Nc3ccc(Br)cc3Cl)c(C(=O)NOCCO)cc21 [Selumetinib] + CCN(CCO)CCCOc1ccc2c(Nc3cc(CC(=O)Nc4cccc(F)c4)[nH]n3)ncnc2c1 [AZD2811] (first compound max 10 µM, 7x7, partner max 1 µM) | 0.296 | 0.253 | 0.958 | 0.477 | 0.475 | 0.733 | 0.21 | 0.219 | 0.444 | 0.909 | 0.232 | 0.364 | 0.34 | 0.268 | 0.654 | 0.956 | 0.375 | 0.289 | 0.208 |
| CC(=O)c1c(C)c2cnc(Nc3ccc(N4CCNCC4)cn3)nc2n(C2CCCC2)c1=O [Palbociclib] + Cc1c2c(nn1C)CSCc1cc(n(C)n1)CSc1cc(c3ccccc3c1)OCCCc1c(C(=O)O)n(C)c3c-2c(Cl)ccc13 [AZD5991] (first compound max 10 µM, 7x7, partner max 1 µM) | 0.428 | 0.786 | 0.663 | 0.777 | 0.182 | 0.33 | 0.157 | 0.435 | 0.224 | 0.553 | 0.609 | 0.306 | 0.725 | 0.886 | 0.248 | 0.652 | 0.289 | 0.288 | 0.489 |
| C[C@@H](c1ccc2nccn2c1)n1nnc2ncc(-c3cnn(C)c3)nc21 [Savolitinib] + Cc1c2c(nn1C)CSCc1cc(n(C)n1)CSc1cc(c3ccccc3c1)OCCCc1c(C(=O)O)n(C)c3c-2c(Cl)ccc13 [AZD5991] (first compound max 1 µM, 7x7, partner max 1 µM) | 0.366 | 0.464 | 0.234 | 0.612 | 0.13 | 0.172 | 0.107 | 0.361 | 0.255 | 0.46 | 0.465 | 0.216 | 0.108 | 0.308 | 0.182 | 0.426 | 0.208 | 0.301 | 0.183 |
| CS(=O)(=O)CCNCc1ccc(-c2ccc3ncnc(Nc4ccc(OCc5cccc(F)c5)c(Cl)c4)c3c2)o1 [Lapatinib] + C[C@@H](Oc1cc(-c2cnn(C3CCNCC3)c2)cnc1N)c1c(Cl)ccc(F)c1Cl [Crizotinib] (first compound max 10 µM, 7x7, partner max 10 µM) | 0.725 | 0.955 | 1 | 0.913 | 0.735 | 0.815 | 0.585 | 0.909 | 0.412 | 0.822 | 0.776 | 0.851 | 0.884 | 0.874 | 0.956 | 0.917 | 0.952 | 0.81 | 0.992 |
